Measurements: the NIST ThermoML archive (doi:10.1016/j.jct.2015.06.025)
Numbers after ± are expanded uncertainties.

Experiments:
[1] = mn = molality of the nth substance listed, in mol/kg; conditions: 101.3 kPa, Liquid; for viscosity: Capillary tube (Ostwald / Ubbelohde) method; for mass density: Pycnometric method
[2] = 101.3 kPa, Liquid, Capillary tube (Ostwald / Ubbelohde) method

Structure (SMILES): O=C[C@H](O)[C@@H](O)[C@H](O)[C@H](O)CO [D-glucose] + O
- viscosity ([1]; 288.15 K, m1 = 0.06): 1.174 ± 0.025 mPa·s
- mass density ([1]; 288.15 K, m1 = 0.06): 1003.25 ± 0.45 kg/m3
- viscosity ([1]; 298.15 K, m1 = 0.06): 0.9111 ± 0.019 mPa·s
- mass density ([1]; 298.15 K, m1 = 0.06): 1001.17 ± 0.45 kg/m3
- viscosity ([1]; 308.15 K, m1 = 0.06): 0.7299 ± 0.015 mPa·s
- mass density ([1]; 308.15 K, m1 = 0.06): 998.15 ± 0.48 kg/m3

Structure (SMILES): [Cl-].[Na+] [sodium chloride] + O
- viscosity ([1]; 288.15 K, m1 = 0.06): 1.146 ± 0.024 mPa·s
- mass density ([1]; 288.15 K, m1 = 0.06): 1001.64 ± 0.45 kg/m3
- viscosity ([1]; 298.15 K, m1 = 0.06): 0.896 ± 0.019 mPa·s
- mass density ([1]; 298.15 K, m1 = 0.06): 999.52 ± 0.45 kg/m3
- viscosity ([1]; 308.15 K, m1 = 0.06): 0.7233 ± 0.015 mPa·s

Structure (SMILES): CCCC(CCC)C(=O)[O-].[Na+] [sodium valproate] + O
- viscosity ([1]; 288.15 K, m1 = 0.0102): 1.153 ± 0.024 mPa·s
- viscosity ([1]; 288.15 K, m1 = 0.0191): 1.162 ± 0.024 mPa·s
- viscosity ([1]; 288.15 K, m1 = 0.0245): 1.169 ± 0.024 mPa·s
- viscosity ([1]; 288.15 K, m1 = 0.0305): 1.177 ± 0.025 mPa·s
- viscosity ([1]; 288.15 K, m1 = 0.0401): 1.187 ± 0.025 mPa·s
- viscosity ([1]; 288.15 K, m1 = 0.0453): 1.195 ± 0.025 mPa·s
- viscosity ([1]; 288.15 K, m1 = 0.0501): 1.201 ± 0.025 mPa·s
- viscosity ([1]; 288.15 K, m1 = 0.0608): 1.213 ± 0.025 mPa·s
- viscosity ([1]; 288.15 K, m1 = 0.0706): 1.225 ± 0.025 mPa·s
- viscosity ([1]; 288.15 K, m1 = 0.08): 1.238 ± 0.026 mPa·s
- viscosity ([1]; 288.15 K, m1 = 0.0924): 1.252 ± 0.026 mPa·s
- viscosity ([1]; 288.15 K, m1 = 0.1021): 1.262 ± 0.026 mPa·s
- mass density ([1]; 288.15 K, m1 = 0.0102): 999.51 ± 0.32 kg/m3
- mass density ([1]; 288.15 K, m1 = 0.0191): 999.84 ± 0.32 kg/m3
- mass density ([1]; 288.15 K, m1 = 0.0245): 1000.06 ± 0.33 kg/m3
- mass density ([1]; 288.15 K, m1 = 0.0305): 1000.3 ± 0.33 kg/m3
- mass density ([1]; 288.15 K, m1 = 0.0401): 1000.66 ± 0.33 kg/m3
- mass density ([1]; 288.15 K, m1 = 0.0453): 1000.87 ± 0.33 kg/m3
- mass density ([1]; 288.15 K, m1 = 0.0501): 1001.04 ± 0.33 kg/m3
- mass density ([1]; 288.15 K, m1 = 0.0608): 1001.43 ± 0.33 kg/m3
- mass density ([1]; 288.15 K, m1 = 0.0706): 1001.79 ± 0.33 kg/m3
- mass density ([1]; 288.15 K, m1 = 0.08): 1002.15 ± 0.33 kg/m3
- mass density ([1]; 288.15 K, m1 = 0.0924): 1002.59 ± 0.33 kg/m3
- mass density ([1]; 288.15 K, m1 = 0.1021): 1002.93 ± 0.33 kg/m3
- viscosity ([1]; 298.15 K, m1 = 0.01): 0.8988 ± 0.019 mPa·s
- viscosity ([1]; 298.15 K, m1 = 0.0191): 0.9064 ± 0.019 mPa·s
- viscosity ([1]; 298.15 K, m1 = 0.0245): 0.9122 ± 0.019 mPa·s
- viscosity ([1]; 298.15 K, m1 = 0.0305): 0.9166 ± 0.019 mPa·s
- viscosity ([1]; 298.15 K, m1 = 0.0401): 0.9238 ± 0.019 mPa·s
- viscosity ([1]; 298.15 K, m1 = 0.0453): 0.9268 ± 0.019 mPa·s
- viscosity ([1]; 298.15 K, m1 = 0.0501): 0.9318 ± 0.019 mPa·s
- viscosity ([1]; 298.15 K, m1 = 0.0608): 0.9391 ± 0.02 mPa·s
- viscosity ([1]; 298.15 K, m1 = 0.0706): 0.9476 ± 0.02 mPa·s
- viscosity ([1]; 298.15 K, m1 = 0.08): 0.9558 ± 0.02 mPa·s
- viscosity ([1]; 298.15 K, m1 = 0.0924): 0.9653 ± 0.02 mPa·s
- viscosity ([1]; 298.15 K, m1 = 0.1021): 0.9733 ± 0.02 mPa·s
- mass density ([1]; 298.15 K, m1 = 0.01): 997.43 ± 0.32 kg/m3
- mass density ([1]; 298.15 K, m1 = 0.0191): 997.79 ± 0.32 kg/m3
- mass density ([1]; 298.15 K, m1 = 0.0245): 997.98 ± 0.33 kg/m3
- mass density ([1]; 298.15 K, m1 = 0.0305): 998.22 ± 0.33 kg/m3
- mass density ([1]; 298.15 K, m1 = 0.0401): 998.56 ± 0.33 kg/m3
- mass density ([1]; 298.15 K, m1 = 0.0453): 998.75 ± 0.33 kg/m3
- mass density ([1]; 298.15 K, m1 = 0.0501): 998.91 ± 0.33 kg/m3
- mass density ([1]; 298.15 K, m1 = 0.0608): 999.3 ± 0.33 kg/m3
- mass density ([1]; 298.15 K, m1 = 0.0706): 999.64 ± 0.33 kg/m3
- mass density ([1]; 298.15 K, m1 = 0.08): 999.96 ± 0.33 kg/m3
- mass density ([1]; 298.15 K, m1 = 0.0924): 1000.39 ± 0.33 kg/m3
- mass density ([1]; 298.15 K, m1 = 0.1021): 1000.72 ± 0.33 kg/m3
- viscosity ([1]; 308.15 K, m1 = 0.01): 0.7252 ± 0.015 mPa·s
- viscosity ([1]; 308.15 K, m1 = 0.02): 0.7296 ± 0.015 mPa·s
- viscosity ([1]; 308.15 K, m1 = 0.0303): 0.7345 ± 0.015 mPa·s
- viscosity ([1]; 308.15 K, m1 = 0.0405): 0.7397 ± 0.015 mPa·s
- viscosity ([1]; 308.15 K, m1 = 0.0497): 0.7444 ± 0.015 mPa·s
- viscosity ([1]; 308.15 K, m1 = 0.0605): 0.7499 ± 0.016 mPa·s
- viscosity ([1]; 308.15 K, m1 = 0.0708): 0.7552 ± 0.016 mPa·s
- viscosity ([1]; 308.15 K, m1 = 0.0844): 0.7617 ± 0.016 mPa·s
- viscosity ([1]; 308.15 K, m1 = 0.0902): 0.7645 ± 0.016 mPa·s
- viscosity ([1]; 308.15 K, m1 = 0.0959): 0.7686 ± 0.016 mPa·s
- viscosity ([1]; 308.15 K, m1 = 0.101): 0.7716 ± 0.016 mPa·s
- viscosity ([1]; 308.15 K, m1 = 0.1154): 0.7769 ± 0.016 mPa·s
- mass density ([1]; 308.15 K, m1 = 0.01): 994.42 ± 0.35 kg/m3
- mass density ([1]; 308.15 K, m1 = 0.02): 994.78 ± 0.35 kg/m3
- mass density ([1]; 308.15 K, m1 = 0.0303): 995.13 ± 0.35 kg/m3
- mass density ([1]; 308.15 K, m1 = 0.0405): 995.53 ± 0.35 kg/m3
- mass density ([1]; 308.15 K, m1 = 0.0497): 995.89 ± 0.35 kg/m3
- mass density ([1]; 308.15 K, m1 = 0.0605): 996.24 ± 0.35 kg/m3
- mass density ([1]; 308.15 K, m1 = 0.0708): 996.63 ± 0.36 kg/m3
- mass density ([1]; 308.15 K, m1 = 0.0844): 997.07 ± 0.36 kg/m3
- mass density ([1]; 308.15 K, m1 = 0.0902): 997.29 ± 0.36 kg/m3
- mass density ([1]; 308.15 K, m1 = 0.0959): 997.48 ± 0.36 kg/m3
- mass density ([1]; 308.15 K, m1 = 0.101): 997.66 ± 0.36 kg/m3
- mass density ([1]; 308.15 K, m1 = 0.1154): 998.16 ± 0.36 kg/m3

Structure (SMILES): O [water]
- viscosity ([2]; 288.15 K): 1.138 ± 0.024 mPa·s
- viscosity ([2]; 298.15 K): 0.8903 ± 0.018 mPa·s
- viscosity ([2]; 308.15 K): 0.7195 ± 0.015 mPa·s

Structure (SMILES): O [water] + CCCC(CCC)C(=O)[O-].[Na+]
- viscosity ([1]; 288.15 K, m2 = 0): 1.138 ± 0.024 mPa·s
- viscosity ([1]; 298.15 K, m2 = 0): 0.8903 ± 0.018 mPa·s
- viscosity ([1]; 308.15 K, m2 = 0): 0.7195 ± 0.015 mPa·s
